From patent US11401253B2, “16-methyl-oxacyclohexadecan-2-one and 16-methyl-azacyclohexadecan-2-one derivatives as antimicrobial agents” (THE UNIVERSITY OF MONTANA, priority 2017, dated 2022)
In brackets after ≈: the same amount, converted by molar mass. Several values for one entry are separate records, joined by “and”; a condition that tells them apart may be missing. Equal values may be shown once. Read-outs that look alike come from different tables or passages of the source.

Assays:
E. coli (25922) = experiment: Antibiotic testing (MIC), gram negative E. coli; type: cell-based; settings: for MIC: Escherichia coli, read-out: MIC, E. coli (25922)
Protocol: (§1) None of this collection of compounds were active against Gram-negative bacteria
(§2) Additionally, BPL 76 and derivatives were tested against a panel of gram negative bacteria including K. pneumonia, P. aeruginosa and E. coli (Table 12).

P. aeruginosa = experiment: Antibiotic testing (MIC), gram negative P. aeruginosa; type: cell-based; settings: Pseudomonas aeruginosa; read-out: MIC, P. aeruginosa
Protocol: as §1, §2

K. pneumoniae (10031) = experiment: Antibiotic testing (MIC), gram negative K. pneumoniae; type: cell-based; settings: for MIC: Klebsiella pneumoniae, read-out: MIC, K. pneumoniae (10031)
Protocol: as §1, §2

MMP-3 = target: T1, MMP-3 (Homo sapiens, UniProt P08254); experiment: MMP-3 enzyme inhibition assay; type: biochemical
T1 construct: purchased BioMol
Protocol: The two fungi were also co-cultured under controlled conditions. P. fuscum was grown in pure culture in potato dextrose broth (10×400 mL). After 24 h, an agar cube (8 mm^3) impregnated with P. camembertii/clavigerum mycelium was added to each flask and the resulting co-culture was shaken for 6 more days (200 rpm, room temperature). At time of harvest, methanol (50 mL/flask) was added, the mycelia were removed by gravity filtration and the broth was extracted with chloroform (3×2 L). The chloroform was removed in vacuo to yield 663 mg of crude extract. The crude extract was verified to be active in the MMP-3, caspase-1 and caspase-3 enzyme inhibition assays. Enzyme inhibitory activity was determined using specific BioMol enzyme inhibition assay kits for drug discovery as described in Stierle, A; Stierle, D. The Berkeleylactones, Antibiotic Macrolides from Fungal Coculture. J. Nat. Prod. 80, 4, 1150-1160.

Candida glabrata = experiment: Antibiotic testing (MIC), Candida glabrata; type: cell-based; settings: Nakaseomyces glabratus; growth inhibition ≥90%; read-out: minimum inhibitory concentration, Candida glabrata
Bacillus subtilis = experiment: Antibiotic testing (MIC), Bacillus subtilis; type: cell-based; settings: growth inhibition ≥90%, read-out: minimum inhibitory concentration, Bacillus subtilis
Streptococcus pyogenes = experiment: Antibiotic testing (MIC), Streptococcus pyogenes; type: cell-based; settings: growth inhibition ≥90%, read-out: minimum inhibitory concentration, Streptococcus pyogenes
B. anthracis = experiment: microbe, parasite or virus in culture; type: cell-based; settings: Bacillus anthracis, read-out: minimum inhibitory concentration, B. anthracis
C. albicans = experiment: Antibiotic testing (MIC), C. albicans; type: cell-based; settings: Candida albicans; growth inhibition ≥90%; read-out: minimum inhibitory concentration, C. albicans
[1] = test system: Staphylococcus aureus (13709); experiment: Antibiotic testing (MIC), S. aureus 13709; type: cell-based; settings: growth inhibition ≥90% relative to drug-free controls, read-out: minimum inhibitory concentration, Staphylococcus aureus (13709)
[2] = test system: Mycobacterium tuberculosis; experiment: microbe, parasite or virus in culture; settings: read-out: MIC, MABA
HepG2 = experiment: Cytotoxicity (MTS), HepG2 cells; type: cell-based; settings: Homo sapiens, 72 hours exposure
S. aureus CAIRD142 = experiment: Antibiotic testing, methicillin-resistant S. aureus CAIRD142; type: cell-based; settings: methicillin-resistant strain; for MIC: Staphylococcus aureus, CAIRD142
Text: (§3) Both the methyl ester and the diacetate derivatives of BPL 76 slightly less but still very strong activity against the same four MRSA strains (Table 11). The activities of compounds BPL 76 and BPL 81 were compared to several known antibiotics against three methicillin-resistant strains of S. aureus [FIG. 6, comparative data provided by Hartford Hospital, Center for Anti-Infective Research and Development (CAIRD)].

S. aureus CAIRD148 = experiment: Antibiotic testing, methicillin-resistant S. aureus CAIRD148; type: cell-based; settings: methicillin-resistant strain; for MIC: Staphylococcus aureus, CAIRD148
Text: as §3

[3] = test system: non-replicating persistence Mycobacterium tuberculosis (NRP-TB); experiment: Low oxygen recovery assay (LORA), non-replicating persistence Mtb; type: cell-based; settings: Mycobacterium tuberculosis, read-out: MIC, LORA
S. aureus CAIRD116 = experiment: Antibiotic testing, methicillin-resistant S. aureus CAIRD116; type: cell-based; settings: methicillin-resistant strain; for MIC: Staphylococcus aureus, CAIRD116
Text: as §3

S. aureus (NE277) = experiment: Antibiotic testing, methicillin-resistant S. aureus NE277; type: cell-based; settings: for MIC: Staphylococcus aureus, read-out: antibiotic testing data (MIC), S. aureus (NE277); for antibiotic testing data (MIC), S. aureus (NE277): methicillin-resistant strain
Text: as §3

Vero cell = experiment: Cytotoxicity (MTS), Vero cells; type: cell-based, monkey; settings: Primates, 72 hours exposure
J774 = experiment: Cytotoxicity (MTS), J774 cells; type: cell-based, murine; settings: Mus musculus, 72 hours exposure
[4] = non-replicating persistence, hypoxic conditions
[5] = non-replicating persistence conditions, known antibiotics

T1 sequence (P08254 100-477): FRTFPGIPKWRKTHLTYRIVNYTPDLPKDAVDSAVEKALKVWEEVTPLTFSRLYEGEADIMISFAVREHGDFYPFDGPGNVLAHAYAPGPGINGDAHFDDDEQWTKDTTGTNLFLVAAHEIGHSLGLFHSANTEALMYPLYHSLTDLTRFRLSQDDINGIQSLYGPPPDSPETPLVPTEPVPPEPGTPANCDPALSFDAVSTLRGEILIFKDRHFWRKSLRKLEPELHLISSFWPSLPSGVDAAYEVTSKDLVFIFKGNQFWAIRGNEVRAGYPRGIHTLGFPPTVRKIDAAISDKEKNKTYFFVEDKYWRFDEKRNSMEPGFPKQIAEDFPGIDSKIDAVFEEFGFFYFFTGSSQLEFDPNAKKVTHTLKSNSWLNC

Row | Compound | MIC (E. coli (25922)) | MIC (P. aeruginosa) [µM] | MIC (K. pneumoniae (10031)) | MIC (Candida glabrata) [µg/mL] | MIC (Bacillus subtilis) [µg/mL] | MIC (Streptococcus pyogenes) [µg/mL] | MIC (B. anthracis) [µg/mL] | MIC (C. albicans) [µg/mL] | MIC [1] [µg/mL] | MIC [2] | IC50 (HepG2) [µg/mL] | IC50 (Vero cell) [µg/mL] | IC50 (J774) [µg/mL] | further results
1 | C[C@H]1OC(=O)/C=C/C(=O)[C@@H](OC(=O)CCC(=O)O)CCCCCCCC[C@@H]1O [BPL 77, 4-(((6S,15S,16R,E)-15-hydroxy-16-methyl-2,5-dioxooxacyclohexadec-3-en-6-yl)oxy)-4-oxobutanoic acid] | 500 µM and 199 µg/mL | > 1000 | 1000 µM and 398 µg/mL | – | – | – | – | – | – | – | – | – | – | activity against E. coli (in words) (E. coli (25922)): weakly active; activity against K. pneumonia (in words) (K. pneumoniae (10031)): weakly active
2 | C[C@@H]1CC(O)CCCCCCC[C@H](OC(=O)CCC(=O)O)C(=O)/C=C/C(=O)O1 (stereo partly drawn) [BPL 78, 4-(((6S,16R,E)-14-hydroxy-16-methyl-2,5-dioxooxacyclohexadec-3-en-6-yl)oxy)-4-oxobutanoic acid] | > 1000 µM | > 1000 | > 1000 µM | – | – | – | – | – | – | – | – | – | – | MMP-3 inhibition (MMP-3): weaker inhibitors
3 | CC(=O)O[C@H]1CCCCCCCC[C@H](OC(C)=O)[C@H](OC(C)=O)/C=C/C(=O)O[C@@H]1C [BPL 79 Ac, (2R,3S,12S,13R,E)-2-methyl-16-oxooxacyclohexadec-14-ene-3,12,13-triyl triacetate] | > 500 µM | > 500 | > 500 µM | – | – | – | – | – | – | – | – | – | – | –
4 | C[C@H]1OC(=O)/C=C/[C@@H](O)[C@@H](O)CCCCCCCC[C@@H]1O [BPL 79, (5R,6S,15 S,16R,E)-5,6,15-trihydroxy-16-methyloxacyclohexadec-3-en-2-one] | > 1000 µM | > 1000 | > 1000 µM | > 300 | > 300 | 150 (≈ 499 µM) | 75 (≈ 250 µM) | > 300 | 19 (≈ 63.3 µM) | – | – | – | – | –
5 | C[C@@H]1CCCCCCCCC[C@H](OC(=O)CCC(=O)O)C(=O)/C=C/C(=O)O1 [BPL 81, 4-(((6S,16R,E)-16-methyl-2,5-dioxooxacyclohexadec-3-en-6-yl)oxy)-4-oxobutanoic acid] | > 250 µM | > 250 | > 250 µM | 48 (≈ 126 µM) | 12 (≈ 31.4 µM) | 48 (≈ 126 µM) | 6 (≈ 15.7 µM) | 96 (≈ 251 µM) | 3 (≈ 7.84 µM) | 47 µg/mL | > 100 | 55.7 (≈ 146 µM) | 37.2 (≈ 97.3 µM) | MIC (S. aureus CAIRD142): 6 µg/mL (≈ 15.7 µM); antibiotic testing data (MIC), S. aureus CAIRD142 (S. aureus CAIRD142): 16 µM; MIC (S. aureus CAIRD148): 6 µg/mL (≈ 15.7 µM); antibiotic testing data (MIC), S. aureus CAIRD148 (S. aureus CAIRD148): 16 µM; MIC [3, 4]: > 100 µg/mL; MIC (S. aureus CAIRD116): 6 µg/mL (≈ 15.7 µM); antibiotic testing data (MIC), S. aureus CAIRD116 (S. aureus CAIRD116): 16 µM; MIC (S. aureus (NE277)): 6 µg/mL (≈ 15.7 µM); antibiotic testing data (MIC), S. aureus (NE277) (S. aureus (NE277)): 16 µM
6 | C[C@@H]1CCCCCCCCCC[C@H](O)/C=C/C(=O)O1 [BPL 94, (5S,16R,E)-5-hydroxy-16-methyloxacyclohexadec-3-en-2-one] | – | – | – | > 67 | 34 (≈ 127 µM) | 67 (≈ 250 µM) | 34 (≈ 127 µM) | > 67 | 34 (≈ 127 µM) | 39 µg/mL | 85.2 (≈ 317 µM) | 43.8 (≈ 163 µM) | 40.7 (≈ 152 µM) | MIC [3, 4]: 20 µg/mL
7 | C[C@@H]1CCCCCCCCC[C@H](O)[C@H](O)/C=C/C(=O)O1 [BPL 95, (5R,6S,16R,E)-5,6-dihydroxy-16-methyloxacyclohexadec-3-en-2-one] | – | – | – | > 96 | 48 (≈ 169 µM) | > 96 | > 96 | > 96 | 48 (≈ 169 µM) | > 100 µg/mL | > 100 | 75.6 (≈ 266 µM) | 74.1 (≈ 261 µM) | MIC [3, 4]: 24 µg/mL
8 | C[C@@H]1CCCCCCCCC[C@H](O)[C@H](OC(=O)CCC(=O)O)/C=C/C(=O)O1 [BPL 96, 4-(((5R,6S,16R,E)-6-hydroxy-16-methyl-2-oxooxacyclohexadec-3-en-5-yl)oxy)-4-oxobutanoic acid] | – | – | – | > 96 | 48 (≈ 125 µM) | > 96 | > 96 | > 96 | 48 (≈ 125 µM) | – | – | – | – | –
9 | O=C(O)CCC(=O)O[C@H]1CCCCCCCCC[C@@H](CO)OC(=O)/C=C/[C@H]1O [BPL 98, 4-(((5R,6S,16S,E)-5-hydroxy-16-(hydroxymethyl)-2-oxooxacyclohexadec-3-en-6-yl)oxy)-4-oxobutanoic acid] | – | – | – | > 100 | > 100 | > 100 | > 100 | > 100 | > 100 | – | – | – | – | MIC (S. aureus CAIRD142): > 100 µg/mL; antibiotic testing data (MIC), S. aureus CAIRD142 (S. aureus CAIRD142): >250 µM; MIC (S. aureus CAIRD148): > 100 µg/mL; antibiotic testing data (MIC), S. aureus CAIRD148 (S. aureus CAIRD148): >250 µM; MMP-3 inhibition (MMP-3): weaker inhibitors; MIC (S. aureus CAIRD116): > 100 µg/mL; antibiotic testing data (MIC), S. aureus CAIRD116 (S. aureus CAIRD116): >250 µM; MIC (S. aureus (NE277)): > 100 µg/mL; antibiotic testing data (MIC), S. aureus (NE277) (S. aureus (NE277)): >250 µM
10 | NNC(=O)c1ccncc1 [INH - Isoniazid, Isoniazid, reference compound] | – | – | – | – | – | – | – | – | – | 0.5 µM | – | – | – | MIC [3, 5]: > 128 µM
11 | CC(=O)NC[C@H]1CN(c2ccc(N3CCOCC3)c(F)c2)C(=O)O1 [LIZ - Linezolidum, Linezolidum, reference compound] | – | – | – | – | – | – | – | – | – | 2 µM | – | – | – | MIC [3, 5]: 2 µM
12 | Cc1ncc([N+](=O)[O-])n1CCO [MET - Metronidazole, Metronidazole, reference compound] | – | – | – | – | – | – | – | – | – | – | – | – | – | MIC [3, 5]: 449 µM
13 | O=[N+]([O-])c1cn2c(n1)OC[C@@H](OCc1ccc(OC(F)(F)F)cc1)C2 [PA824, reference compound] | – | – | – | – | – | – | – | – | – | 0.2 µM | – | – | – | MIC [3, 5]: 7 µM
14 | CO[C@H]1/C=C/O[C@@]2(C)Oc3c(C)c(O)c4c(O)c(c(/C=N/N5CCN(C)CC5)c(O)c4c3C2=O)NC(=O)/C(C)=C\C=C\[C@H](C)[C@H](O)[C@@H](C)[C@@H](O)[C@@H](C)[C@H](OC(C)=O)[C@@H]1C [RMP - Rifampicin, Rifampicin, reference compound] | – | – | – | – | – | – | – | – | – | > 0.1 µM | > 100 | > 100 | 95.8 (≈ 116 µM) | MIC [3]: 0.4 µM
15 | COc1nc2ccc(Br)cc2cc1[C@@H](c1ccccc1)[C@@](O)(CCN(C)C)c1cccc2ccccc12 [TMC207, reference compound] | – | – | – | – | – | – | – | – | – | > 0.1 µM | > 10 | > 10 | > 10 | MIC [3]: 0.1 µM
